Columns and labels:
[1] = tested on: Culex fatigans larvae; test: LC50 to Culex fatigans larvae; assay type: in vivo, Culex pipiens quinquefasciatus Say
Excerpt: (§1) World Health Org. 363 (1971). […] Food Chem. 1145 (1970). […] Sci. Tech. 709 (1971). The results are detailed in Table II. ##SPC1##

[2] = tested on: Anopheles albimanus larvae; test: LC50 to Anopheles albimanus larvae; assay type: in vivo, Anopheles albimanus Weid
Excerpt: as §1

[3] = tested on: Phormia regina; test: whole plant or invertebrate; conditions: for LD50: Phormia regina, read-out: Topical LD50, Phormia regina, Alone; for LD50 / Topical LD50, Phormia regina, with pb: topical; for SR, Phormia regina: synergistic ratio: LD50 alone/LD50 synergized with piperonyl butoxide; for Topical LD50, Phormia regina, with pb: synergized with piperonyl butoxide
Experimental: The compounds of the present invention were tested for insecticidal activity by standard methods, and compared with the insecticidal activities of DDT and symmetrical analogs of DDT, such methoxychlor. Toxicological methods for the determination of the topical LD50 values to adult female SNAIDM and RSP houseflies, Musca domestica L. and to Phormia regina, and LC50 values to Culex pipiens quinquefasciatus Say, and Anopheles albimanus Weid mosquitoes were described by Metcalf el al., 44 Bull. World Health Org. […] The methods for evaluation of metabolism by mouse liver homogenate and by female RSP housefly and salt-marsh caterpillar larvae Estigmene acrea Drury, were described by Kapoor et al., 18 J. Agr. […] The techniques for model eocsystem evluation were described by Metcalf et al., 5 J. Environ. Sci. Tech.
(§2) Since piperonyl butoxide serves to block the action of MFO, the synergized LD50 values express the intrinsic toxicity of the compounds. With the detoxifying action of MFO enzymes blocked, the intrinsic toxicity of the compounds can thus be measured.

[4] = tested on: Musca domestica Rsp; test: Topical LD50 to adult female RSP houseflies; conditions: for LD50: Musca domestica, read-out: Topical LD50, Musca domestica Rsp, Alone; for LD50 / Topical LD50, Musca domestica Rsp, with pb: topical; for Topical LD50, Musca domestica Rsp, with pb: RSP strain, synergized with piperonyl butoxide; for SR, Musca domestica Rsp: synergistic ratio: LD50 alone/LD50 synergized with piperonyl butoxide
Experimental: (§3) The compounds of the present invention were tested for insecticidal activity by standard methods, and compared with the insecticidal activities of DDT and symmetrical analogs of DDT, such methoxychlor. Toxicological methods for the determination of the topical LD50 values to adult female SNAIDM and RSP houseflies, Musca domestica L. and to Phormia regina, and LC50 values to Culex pipiens quinquefasciatus Say, and Anopheles albimanus Weid mosquitoes were described by Metcalf el al., 44 Bull. World Health Org. 363 (1971). The methods for evaluation of metabolism by mouse liver homogenate and by female RSP housefly and salt-marsh caterpillar larvae Estigmene acrea Drury, were described by Kapoor et al., 18 J. Agr. Food Chem. 1145 (1970). The techniques for model eocsystem evluation were described by Metcalf et al., 5 J. Environ. Sci. Tech. 709 (1971).
as §2

[5] = tested on: Musca domestica Snaidm; test: Topical LD50 to adult female SNAIDM houseflies; conditions: for LD50: Musca domestica, read-out: Topical LD50, Musca domestica Snaidm, Alone; for LD50 / Topical LD50, Musca domestica Snaidm, with pb: topical; for Topical LD50, Musca domestica Snaidm, with pb: SNAIDM strain, synergized with piperonyl butoxide; for SR, Musca domestica Snaidm: synergistic ratio: LD50 alone/LD50 synergized with piperonyl butoxide
Experimental: as §3, §2

[6] = tested on: Musca domestica (SNAIDM and RSP strains), Phormia regina, Culex fatigans and Anopheles albimanus; test: Insecticidal activity over the test insects (Table II, summarised in words); assay type: in vivo
Experimental: as §3, §2

| SMILES | LC50 Culex fatigans larvae [1] | LC50 Anopheles albimanus larvae [2] | LD50 [3] | SR, Phormia regina [3] | Topical LD50, Phormia regina, with pb [3] | LD50 [4] | Topical LD50, Musca domestica Rsp, with pb [4] | SR, Musca domestica Rsp [4] | LD50 [5] | Topical LD50, Musca domestica Snaidm, with pb [5] | SR, Musca domestica Snaidm [5] | toxicity to adult insects (in words) ([6]; adult insects) | larvicidal effectiveness (in words) ([6]; mosquito larvae) | insecticidal effectiveness / toxicity (in words) ([6]; overall, test insects of Table II) |
| --- | --- | --- | --- | --- | --- | --- | --- | --- | --- | --- | --- | --- | --- | --- |
| CCOc1ccc(NC(c2ccc(OC)cc2)C(Cl)(Cl)Cl)cc1 (stereo not drawn) [XIV] | 0.34 ppm | 1.0 ppm | 112 mg/kg | 5.6 | 20.0 μg per g | 37 mg/kg | 12.0 μg per g | 3.1 | 30 mg/kg | 3.9 μg per g | 7.7 |  |  |  |
| Clc1ccc(NC(c2ccc(Cl)cc2)C(Cl)(Cl)Cl)cc1 (stereo not drawn) [Compound I] | 0.026 ppm | 0.090 ppm | > 250 mg/kg | > 5.5 | 42.5 μg per g | 220 mg/kg | 25 μg per g | 8.8 | 115 mg/kg | 13.5 μg per g | 8.5 | low toxicity to adult insects | very effective larvicide |  |
| COc1ccc(NC(c2ccc(N(C)C)cc2)C(Cl)(Cl)Cl)cc1 (stereo not drawn) [XXV] | 0.70 ppm | 1.0 ppm | > 250 mg/kg |  | 85.0 μg per g | > 500 mg/kg | 13.5 μg per g | > 37 | 310 mg/kg | 16.0 μg per g | 19.4 |  |  | Toxicity was also substantially decreased |
| CCOc1ccc(NC(c2ccc(Cl)cc2)C(Cl)(Cl)Cl)cc1 (stereo not drawn) [VIII] | 0.22 ppm | 0.26 ppm | 37.5 mg/kg | 2.8 | 13.2 μg per g | 45 mg/kg | 13.0 μg per g | 3.5 | 19.5 mg/kg | 4.1 μg per g | 4.8 |  |  |  |
| Cc1ccc(NC(c2ccc(Cl)cc2)C(Cl)(Cl)Cl)cc1 (stereo not drawn) [Compound XVI] | 0.18 ppm | 0.14 ppm | 36.2 mg/kg | 1.45 | 25 μg per g | 125 mg/kg | 30 μg per g | 4.2 | 65 mg/kg | 16 μg per g | 4.1 |  |  |  |
| CCOc1ccc(C(Nc2ccc(OC)cc2)C(Cl)(Cl)Cl)cc1 (stereo not drawn) [XIII] | 0.42 ppm | 0.68 ppm | 22 mg/kg | 1.8 | 12.5 μg per g | 41 mg/kg | 12.5 μg per g | 3.3 | 23.5 mg/kg | 5.5 μg per g | 4.2 |  |  |  |
| CCOc1ccc(C(Nc2ccc(C)cc2)C(Cl)(Cl)Cl)cc1 (stereo not drawn) [XI, α-trichloromethyl-p-ethoxybenzyl-p-methylaniline] | 0.073 ppm | 0.085 ppm | 7.7 mg/kg |  | 4.2 μg per g | 14 mg/kg | 4.4 μg per g | 3.2 | 12.5 mg/kg | 2.5 μg per g | 5.0 |  |  |  |
